Assay results: patent US11135228B2, “Cysteinyl-proresolving mediators that promote resolution of infection and organ protection” (THE BRIGHAM AND WOMEN'S HOSPITAL, priority 2014, dated 2021)

Tests used:
Human macrophages [1] = assay: Human macrophage efferocytosis of apoptotic PMN; type: cell-based; details: 17-series sulfido-conjugates 0.1-10 nM; apoptotic PMNs 40 min
Procedure: (§1) Leukocyte phagocytosis: Macrophages were prepared from peripheral blood mononuclear cells (PBMC) purchased from Children's Hospital Blood Bank, Boston, and phagocytosis was assessed as in (11). Briefly, macrophages (5×10^4 cells,/well) were incubated with SCI (10 pM-100 nM), SCII (10 pM-100 nM), MaR1 (10 pM-100 nM), or vehicle (0.1% EtOH in DPBS) for 15 min at 37° C., then fluorescent labeled apoptotic cells were added and cells incubated 45 min at 37° C. Extracellular fluorescence was quenched using Trypan blue (1:15 dilution) and phagocytosis assessed using an M3 SpectraMax plate reader. In select experiments, macrophages (5×10^4 cells/well) or neutrophils (1×10^5 cells/well) were obtained from human healthy volunteers' peripheral blood as in (11) in accordance with Partners Human Research Committee Protocol (#1999P001297), and incubated with H2DCFDA (5 μM, 30 min, 37° C.), then with SCI (10 pM-100 nM), SCI (10 pM-100 nM) or vehicle (0.1% EtOH in DPBS, 15 min, 37° C.) and E. coli (1:50 leukocytes to E. coli, 45 min, 37° C.) Intracellular reactive oxygen species were determined by measuring fluorescence using an M3 SpectraMax plate reader. To assess bacterial phagocytosis, macrophages (5×10^4 cells/well) or neutrophils (1×10^5 cells/well) were incubated with SCI (10 pM-100 nM), SCII (10 pM-100 nM) or vehicle (0.1% EtOH in DPBS, 15 min, 37° C.), then incubated with BacLight Green (Molecular Probes) labeled E. coli (1:50 leukocytes to E. coli, 45 min, 37° C.), Extracellular fluorescence was quenched using Trypan blue (1:15 dilution), and phagocytosis assessed using an M3 SpectraMax plate reader.
In determined experiments, human macrophages were incubated with SC isolates from regenerating planaria for 15 min at 37° C., then fluorescent labeled apoptotic cells were added and efferocytosis was assessed as detailed above.
Macrophage bacterial phagocytosis, efferocytosis, and phagolysosontal acidification: Human macrophages were plated in 96-well plates (5×10^4 cells per well) for 24 h, and phagocytosis or efferocytosis was assessed as in (14). In brief, apoptotic PMNs were obtained by culturing cells overnight in PBS^−/− (5×10^6 cells/ml). Apoptotic human PMNs were labeled with bisbenzimide H33342 trihydrochloride (Sigma-Aldrich). Human macrophages were incubated with 0.1-10 nM concentration of test products, and then labeled apoptotic PMNs were cocultured with macrophages for 40 min [37° C. […]]. Fluorescence was read on a SpectraMax M3 plate reader (Molecular Devices, Sunnyvale, Calif., USA), and results were analyzed using SoftMax Pro (Molecular Devices).

Human macrophages [2] = assay: Human macrophage phagocytosis of fluorescently labeled E. coli; type: cell-based; details: 17-series sulfido-conjugates 0.1-10 nM, 15 min; bacteria 40 min
Procedure: as §1
Macrophage phagocytosis was assessed using fluorescently labeled E. coli (serotype O6:K2;H1) with BacLight Green Bacterial Stain (Life Technologies, Eugene, Oreg., USA). E. coli [2.5×10^6 colony-forming units (CFL)/well] were then added to macrophages previously plated in 96-well plates (40 min at 37° C.) and incubated with 0.1-10 nM concentration of test compounds [15 min at 37° C. (pH 7.45)]. Fluorescence was measured on a SpectraMax M3 plate reader, and results were analyzed using SoftMax Pro.

Human macrophages [3] = assay: Macrophage phagolysosomal acidification (pHrodo dye); type: cell-based; details: in the presence of bacteria, 60 min
Procedure: Macrophage phagolysosomal acidification was assessed by incubating macrophages with pHrodo dye (Invitrogen) following the manufacturer's instructions. Subsequently, cells were incubated with 1 nM of test compounds (15 min at 37° C.), E. coli (2.5×10^6 CFU/well) were added, and fluorescence was assessed after 60 min (37° C.) using a BZ9000 microscope equipped with a ×20 objective (Keyence, Itasca, Ill., USA) and a fluorescence plate reader.

[4] = system: Mice (hind-limb ischemia/reperfusion); assay: Hind-limb ischemia reperfusion, second organ reflow injury; type: in vivo, mouse; details: SCI plus SCII 50 ng each or RvD1 500 ng i.v.
Procedure: Ischemia Reperfusion: Mice were anesthetized by intraperitoneal (i.p.) injection of […]. To initiate hind-limb ischemia, tourniquets consisting of a rubber band were placed on each hind limb. Ten min prior to the initiation of reperfusion, Vehicle (saline containing 0.1% EtOH), SCI (50 ng) plus SCII (50 ng) or Resolvin D1 (500 ng) were administered by intravenous injection. At the end of reperfusion (3 h), mice were euthanized, blood collected via cardiac puncture and plasma isolated for lipid mediator metabololipidomics. Lungs were harvested, left lungs were frozen in liquid nitrogen and stored at −80° C. Right lungs were stored in 10% (v/v) buffered formalin and processed for histology and hematoxylin and eosin (H&E) staining by the Children's Hospital Boston Core Histology Facility, imaged using a Keyence BZ-9000 microscope and BZ II imaging software (Keyence) Expression of Ki67 and Roof plate-specific Spondin-3 (RSPO3) were assessed by immunofluorescence staining. Briefly, sections were deparafinized in xylene and rehydrated, then blocked in 10% horse serum and stained with either rat anti-mouse RSPON3 antibody (R&D Systems) for 1 h at room temperature and then with sheep anti-rat Alexa-594 conjugated antibody (BioLegend), or with rabbit anti-mouse antibody (Abeam) and then with donkey anti-rabbit Alexa-488 antibody (BioLegend). Slides were mounted in Vector Shield mounting solution with DAPI (Vector Labs) and immunofluorescence assessed using a Zeiss LSM 510 Meta confocal microscope. Images were processed using ImageJ software (National Institutes of Health) and Adobe Photoshop CS6 (Adobe Systems incorporated) software. Frozen lungs were gently dispersed, centrifuged, and tissue myeloperoxidase (MPO) levels were determined using mouse MPO ELISA (R&D Systems).

γ-glutamyl transferase [5] = assay: Sulfido-conjugate levels in activated human macrophages with γ-glutamyl transferase inhibitor; type: cell-based; details: Acivicin 2.5 mM
Procedure: Human macrophages (3×10^7 cells/ml) were incubated with DHA (1 μg, 37° C., PBS, pH 7.45) and E. coli (1.5×10^8 […]). Incubations were stopped with 2 volumes ice-cold methanol, products were extracted and levels assessed by LC-MS-MS. In select experiments, macrophages were incubated with Acivicin (2.5 mM, 37° C. PBS, pH 7.45) prior to addition of DHA (1 μg) and. Acivicin (2.5 mM) and products assessed by LC-MS-MS.
In select experiments, human macrophages (˜4.5×10^7 cells/ml) were incubated with DHA (10.5 μM) or 17-HpD [10 μM at 37° C. (pH 7.45)] and E. coli (1:50) for 30 min at 37° C. Incubations were stopped with 2 volumes of ice-cold methanol, products were extracted, and levels assessed by LC-MS-MS. Macrophages were also incubated with or without Acivicin [2.5 mM at 37° C., PBS (pH 7.45)], a γ-glutamyl transferase (GGT) agent that inhibits LT D4 formation (16), before addition of 17-HpD (10 μM) and E. coli (1:50; 60 min), and products were taken to […].

γ-glutamyl transferase [6] = assay: SCI and SCII levels in regenerating planaria with γ-glutamyl transferase inhibitor; type: in vivo, Dugesia japonica; details: Acivicin 2.5 mM

| Compound | human macrophage efferocytosis (uptake of apoptotic human PMNs) (Human macrophages [1]) | human macrophage phagocytosis of E. coli (Human macrophages [2]) | macrophage phagolysosomal acidification (Human macrophages [3]) | further results |
| --- | --- | --- | --- | --- |
| CC/C=C\C[C@H](O)[C@@H](/C=C/C=C/C=C\C/C=C\C/C=C\CCC(=O)O)SC[C@H](N)C(=O)O [PCTR3, 16-cysteinyl, 17-hydroxy-4Z,7Z,10,12,14,19Z-docosahexaenoic acid] | dose-dependent increase | dose-dependent increase | dose-dependent increase | – |
| CC/C=C\C[C@H](O)/C=C/C=C\C=C\C=C\[C@@H](SC[C@H](NC(=O)CC[C@H](N)C(=O)O)C(=O)NCC(=O)O)[C@@H](O)C/C=C\CCC(=O)O [RCTR1, 8-glutathionyl, 7,17-hydroxy-4Z,9,11,13Z,15E,19Z-docosahexaenoic acid] | dose-dependent increase | dose-dependent increase | dose-dependent increase | – |
| CC/C=C\C[C@H](O)/C=C/C=C\C=C\C=C\[C@@H](O)[C@@H](O)C/C=C\CCC(=O)O [RvD1, 7S,8R,17S-trihydroxy-docosa-4Z,9E,11E,13Z,15E,19Z-hexaenoic acid, reference compound] | – | – | – | leukocyte infiltration/migration into lungs and spleens (MPO) [4]: comparable |
| CC/C=C\C[C@H](O)/C=C/C=C\C=C\C=C\[C@@H](SC[C@H](N)C(=O)NCC(=O)O)[C@@H](O)C/C=C\CCC(=O)O [RCTR2, 8-cysteinylglycinyl, 7,17-hydroxy-4Z,9,11,13Z,15E,19Z-docosahexaenoic acid] | dose-dependent increase | dose-dependent increase | dose-dependent increase | – |
| CC/C=C\CC(O)C(/C=C/C=C/C=C\C/C=C\C/C=C\CCC(=O)O)SCC(NC(=O)CCC(N)C(=O)O)C(=O)NCC(=O)O (stereo not shown) [PCTR1, 16-glutathionyl, 17-hydroxy-4Z,7Z,10,12,14,19Z-docosahexaenoic acid] | dose-dependent increase | dose-dependent increase | dose-dependent increase | – |
| CC/C=C\C[C@H](O)\C=C/C=C/C=C/[C@H](O)C/C=C\C/C=C\CCC(=O)O [PD1, 10R,17S-dihydroxy-docosa-4Z,7Z,11E,13E,15Z,19Z-hexaenoic acid, reference compound] | – | comparable | – | – |
| CC/C=C\C[C@H](O)[C@@H](/C=C/C=C/C=C\C/C=C\C/C=C\CCC(=O)O)SC[C@H](N)C(=O)NCC(=O)O [PCTR2, 16-cysteinylglycinyl, 17-hydroxy-4Z,7Z,10,12,14,19Z-docosahexaenoic acid] | dose-dependent increase | dose-dependent increase | dose-dependent increase | – |
| N[C@H](C(=O)O)[C@@H]1CC(Cl)=NO1 [Acivicin] | – | – | – | 8-cysteinyl, 7,17-dihydroxy-docosahexaenoic acid (RCTR3) levels (γ-glutamyl transferase [5]; E. coli): decrease; 8-glutathionyl, 7,17-dihydroxy-docosahexaenoic acid (RCTR1) levels (γ-glutamyl transferase [5]; E. coli): statistically significant increase; 16-cysteinyl, 17-hydroxy-docosahexaenoic acid (PCTR3) levels (γ-glutamyl transferase [5]; E. coli): decrease; 16-glutathionyl, 17-hydroxy-docosahexaenoic acid (PCTR1) levels (γ-glutamyl transferase [5]; E. coli): increase; SCI levels (γ-glutamyl transferase [5]; then DHA and E. coli): significant increase; SCII levels (γ-glutamyl transferase [5]; then DHA and E. coli): reduction; SCI level in regenerating planaria (γ-glutamyl transferase [6]): increased; SCII levels in regenerating planaria (γ-glutamyl transferase [6]): decreased |
